Six compounds from ChEMBL document CHEMBL5137065, “Recent Advances with KDM4 Inhibitors and Potential Applications” (J Med Chem, 2022) can be followed below.

SMILES strings stand for the structures. pEC50, pIC50, pKi: −log10 of the molar value.

One may read the pIC50 as the negative decadic logarithm of the IC50, by convention in mol/L. As usually defined, the pEC50 is the negative decadic logarithm of the EC50, by convention in mol/L. Lower therefore signals a large EC50. In general, GI50 refers to the concentration at which growth is held to half of that of the control. What is called pKi is the Ki on a negative log10 scale, so that one unit is a factor of ten. A higher pKi goes with a low Ki.

Data set [1] deals with T1, Lysine-specific demethylase 4D (Homo sapiens, UniProt Q6B0I6).
T1 sequence (Q6B0I6 whole entry): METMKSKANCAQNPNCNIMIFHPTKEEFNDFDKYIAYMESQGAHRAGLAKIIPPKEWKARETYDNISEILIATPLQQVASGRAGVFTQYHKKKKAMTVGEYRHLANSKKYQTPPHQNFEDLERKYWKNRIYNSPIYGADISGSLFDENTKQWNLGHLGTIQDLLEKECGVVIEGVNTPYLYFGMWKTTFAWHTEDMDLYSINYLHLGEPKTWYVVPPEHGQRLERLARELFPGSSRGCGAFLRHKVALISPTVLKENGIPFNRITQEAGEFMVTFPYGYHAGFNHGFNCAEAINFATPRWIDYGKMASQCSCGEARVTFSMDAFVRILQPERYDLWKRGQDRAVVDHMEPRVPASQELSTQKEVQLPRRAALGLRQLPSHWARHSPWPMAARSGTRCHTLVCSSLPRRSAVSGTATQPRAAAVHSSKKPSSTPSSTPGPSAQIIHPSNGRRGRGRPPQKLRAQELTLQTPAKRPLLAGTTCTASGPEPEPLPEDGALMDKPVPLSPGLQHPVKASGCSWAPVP
Put plainly: Inhibition of human KDM4D measured by AlphaLISA assay. On the technique in general: Alpha assays give light when donor and acceptor beads are brought close together.

The target of data set [2] is T2, Lysine-specific demethylase 4C (Homo sapiens, UniProt Q9H3R0).
T2 sequence (Q9H3R0 whole entry): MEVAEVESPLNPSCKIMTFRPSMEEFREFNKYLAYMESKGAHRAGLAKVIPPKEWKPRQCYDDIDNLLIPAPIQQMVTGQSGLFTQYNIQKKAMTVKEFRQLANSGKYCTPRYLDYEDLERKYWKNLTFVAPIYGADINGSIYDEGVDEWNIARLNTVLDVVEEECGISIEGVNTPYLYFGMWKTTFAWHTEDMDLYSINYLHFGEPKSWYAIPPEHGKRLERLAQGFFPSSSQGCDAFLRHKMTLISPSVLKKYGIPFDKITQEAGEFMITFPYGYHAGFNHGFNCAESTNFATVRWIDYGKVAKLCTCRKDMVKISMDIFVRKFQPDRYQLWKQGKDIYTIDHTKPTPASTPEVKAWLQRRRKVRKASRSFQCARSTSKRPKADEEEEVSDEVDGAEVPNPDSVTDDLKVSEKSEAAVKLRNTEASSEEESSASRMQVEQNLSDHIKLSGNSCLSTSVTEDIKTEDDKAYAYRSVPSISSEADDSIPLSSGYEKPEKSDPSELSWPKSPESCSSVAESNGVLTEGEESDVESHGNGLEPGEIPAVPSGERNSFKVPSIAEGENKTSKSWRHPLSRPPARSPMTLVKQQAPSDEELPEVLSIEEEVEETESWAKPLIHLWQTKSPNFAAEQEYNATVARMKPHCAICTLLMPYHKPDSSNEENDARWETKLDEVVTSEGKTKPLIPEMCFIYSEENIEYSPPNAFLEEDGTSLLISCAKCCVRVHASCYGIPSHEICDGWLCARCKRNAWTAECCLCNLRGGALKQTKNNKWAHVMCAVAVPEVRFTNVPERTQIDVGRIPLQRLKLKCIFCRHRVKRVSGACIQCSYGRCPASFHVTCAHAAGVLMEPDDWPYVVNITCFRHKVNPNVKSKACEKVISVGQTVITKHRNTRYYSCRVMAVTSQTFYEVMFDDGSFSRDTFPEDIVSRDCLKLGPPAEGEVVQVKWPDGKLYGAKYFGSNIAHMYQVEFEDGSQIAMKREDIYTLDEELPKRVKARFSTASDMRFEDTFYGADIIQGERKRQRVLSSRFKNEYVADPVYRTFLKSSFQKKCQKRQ
The experiment in a line: Inhibition of human KDM4C measured by AlphaLISA assay.

The target of data set [3] is T3, Lysine-specific demethylase 4B (Homo sapiens, UniProt O94953).
T3 sequence (O94953 whole entry): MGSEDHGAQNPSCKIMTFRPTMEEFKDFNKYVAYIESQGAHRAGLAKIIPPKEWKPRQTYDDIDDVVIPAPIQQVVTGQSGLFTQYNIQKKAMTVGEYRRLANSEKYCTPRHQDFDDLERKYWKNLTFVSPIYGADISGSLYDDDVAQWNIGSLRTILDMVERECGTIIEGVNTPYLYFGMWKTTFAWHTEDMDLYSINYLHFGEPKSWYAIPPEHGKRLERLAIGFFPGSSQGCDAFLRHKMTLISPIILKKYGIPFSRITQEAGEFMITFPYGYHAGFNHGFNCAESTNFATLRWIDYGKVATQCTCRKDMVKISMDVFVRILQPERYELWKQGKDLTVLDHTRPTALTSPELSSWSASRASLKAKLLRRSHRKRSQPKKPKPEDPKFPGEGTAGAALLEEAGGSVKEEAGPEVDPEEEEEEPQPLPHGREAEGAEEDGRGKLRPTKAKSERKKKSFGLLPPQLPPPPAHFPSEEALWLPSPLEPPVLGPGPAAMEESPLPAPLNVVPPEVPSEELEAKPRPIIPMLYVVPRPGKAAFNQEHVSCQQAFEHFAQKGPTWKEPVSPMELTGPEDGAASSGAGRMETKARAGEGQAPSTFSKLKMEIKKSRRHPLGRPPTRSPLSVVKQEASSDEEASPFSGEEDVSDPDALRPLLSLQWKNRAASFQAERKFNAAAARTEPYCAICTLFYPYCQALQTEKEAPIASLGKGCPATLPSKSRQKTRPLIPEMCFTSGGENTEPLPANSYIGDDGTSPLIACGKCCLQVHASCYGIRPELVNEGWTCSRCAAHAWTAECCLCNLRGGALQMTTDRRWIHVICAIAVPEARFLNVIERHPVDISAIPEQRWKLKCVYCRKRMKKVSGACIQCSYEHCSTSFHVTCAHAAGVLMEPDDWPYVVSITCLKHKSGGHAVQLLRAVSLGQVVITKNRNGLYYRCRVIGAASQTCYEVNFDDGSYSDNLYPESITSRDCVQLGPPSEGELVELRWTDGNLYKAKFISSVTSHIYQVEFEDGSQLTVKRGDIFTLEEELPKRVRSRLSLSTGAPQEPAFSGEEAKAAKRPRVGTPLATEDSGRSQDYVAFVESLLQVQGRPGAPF
The experiment in a line: Inhibition of human KDM4B measured by AlphaLISA assay.

The target in data set [4] is T4, Lysine-specific demethylase 4A (Homo sapiens, UniProt O75164).
T4 sequence (O75164 whole entry): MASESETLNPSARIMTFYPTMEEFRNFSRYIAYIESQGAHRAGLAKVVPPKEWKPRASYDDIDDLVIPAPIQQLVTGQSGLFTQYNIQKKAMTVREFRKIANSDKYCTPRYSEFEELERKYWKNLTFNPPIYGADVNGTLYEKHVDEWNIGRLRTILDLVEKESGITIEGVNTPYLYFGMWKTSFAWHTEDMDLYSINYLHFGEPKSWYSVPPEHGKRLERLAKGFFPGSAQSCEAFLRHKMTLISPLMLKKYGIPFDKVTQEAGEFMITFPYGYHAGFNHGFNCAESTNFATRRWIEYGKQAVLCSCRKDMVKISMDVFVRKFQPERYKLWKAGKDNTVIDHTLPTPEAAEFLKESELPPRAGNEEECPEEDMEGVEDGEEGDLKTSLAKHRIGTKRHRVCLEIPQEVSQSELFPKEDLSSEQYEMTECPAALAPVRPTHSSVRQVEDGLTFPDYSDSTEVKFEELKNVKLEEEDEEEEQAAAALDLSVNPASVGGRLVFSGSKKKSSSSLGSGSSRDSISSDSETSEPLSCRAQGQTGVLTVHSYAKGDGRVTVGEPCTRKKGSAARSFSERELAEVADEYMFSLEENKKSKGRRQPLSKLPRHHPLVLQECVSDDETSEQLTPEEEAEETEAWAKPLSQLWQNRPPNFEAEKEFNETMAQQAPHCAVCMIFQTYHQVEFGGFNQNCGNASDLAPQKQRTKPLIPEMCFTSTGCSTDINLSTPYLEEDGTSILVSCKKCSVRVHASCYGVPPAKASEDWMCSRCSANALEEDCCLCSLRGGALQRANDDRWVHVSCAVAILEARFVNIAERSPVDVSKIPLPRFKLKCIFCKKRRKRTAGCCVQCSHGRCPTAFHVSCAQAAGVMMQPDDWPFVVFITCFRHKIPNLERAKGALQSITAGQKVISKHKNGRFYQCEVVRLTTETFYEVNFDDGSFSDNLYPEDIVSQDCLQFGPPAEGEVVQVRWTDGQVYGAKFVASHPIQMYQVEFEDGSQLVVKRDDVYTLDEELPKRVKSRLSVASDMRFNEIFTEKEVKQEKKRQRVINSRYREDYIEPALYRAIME
The experiment in a line: Inhibition of binding of H3K4Me3 to KDM4A tudor domain (unknown origin) measured by NanoBRET-based cellular proximity assay. Background: In BRET a luciferase serves as donor, and the signal depends on an acceptor being close.

For data set [5], the target named is T4, Lysine-specific demethylase 4A. The experiment in a line: Inhibition of KDM4A (unknown origin) measured by AlphaLisa-based screening assay.
Data set [6] concerns the target T1, Lysine-specific demethylase 4D. Put plainly: Inhibition of KDM4D (unknown origin) measured by AlphaLisa-based screening assay.
Data set [7] is described as follows: Permeability of compound in human Caco-2 cells. Particulars: read-out: permeability. Format: ADME, cell-based. Background: Passage across Caco-2 layers is used to estimate intestinal permeability.
Data set [8] deals with LNCaP. Put plainly: Antiproliferative activity against human LNCaP cells measured by Alamarblue assay. The class given is functional.
For data set [9], the system named is DU-145. The experiment in a line: Antiproliferative activity against human DU-145 cells measured by Alamarblue assay. Format: functional.
Data set [10] addresses T5, Lysine-specific demethylase 2A (Homo sapiens, UniProt Q9Y2K7).
T5 sequence (Q9Y2K7 whole entry): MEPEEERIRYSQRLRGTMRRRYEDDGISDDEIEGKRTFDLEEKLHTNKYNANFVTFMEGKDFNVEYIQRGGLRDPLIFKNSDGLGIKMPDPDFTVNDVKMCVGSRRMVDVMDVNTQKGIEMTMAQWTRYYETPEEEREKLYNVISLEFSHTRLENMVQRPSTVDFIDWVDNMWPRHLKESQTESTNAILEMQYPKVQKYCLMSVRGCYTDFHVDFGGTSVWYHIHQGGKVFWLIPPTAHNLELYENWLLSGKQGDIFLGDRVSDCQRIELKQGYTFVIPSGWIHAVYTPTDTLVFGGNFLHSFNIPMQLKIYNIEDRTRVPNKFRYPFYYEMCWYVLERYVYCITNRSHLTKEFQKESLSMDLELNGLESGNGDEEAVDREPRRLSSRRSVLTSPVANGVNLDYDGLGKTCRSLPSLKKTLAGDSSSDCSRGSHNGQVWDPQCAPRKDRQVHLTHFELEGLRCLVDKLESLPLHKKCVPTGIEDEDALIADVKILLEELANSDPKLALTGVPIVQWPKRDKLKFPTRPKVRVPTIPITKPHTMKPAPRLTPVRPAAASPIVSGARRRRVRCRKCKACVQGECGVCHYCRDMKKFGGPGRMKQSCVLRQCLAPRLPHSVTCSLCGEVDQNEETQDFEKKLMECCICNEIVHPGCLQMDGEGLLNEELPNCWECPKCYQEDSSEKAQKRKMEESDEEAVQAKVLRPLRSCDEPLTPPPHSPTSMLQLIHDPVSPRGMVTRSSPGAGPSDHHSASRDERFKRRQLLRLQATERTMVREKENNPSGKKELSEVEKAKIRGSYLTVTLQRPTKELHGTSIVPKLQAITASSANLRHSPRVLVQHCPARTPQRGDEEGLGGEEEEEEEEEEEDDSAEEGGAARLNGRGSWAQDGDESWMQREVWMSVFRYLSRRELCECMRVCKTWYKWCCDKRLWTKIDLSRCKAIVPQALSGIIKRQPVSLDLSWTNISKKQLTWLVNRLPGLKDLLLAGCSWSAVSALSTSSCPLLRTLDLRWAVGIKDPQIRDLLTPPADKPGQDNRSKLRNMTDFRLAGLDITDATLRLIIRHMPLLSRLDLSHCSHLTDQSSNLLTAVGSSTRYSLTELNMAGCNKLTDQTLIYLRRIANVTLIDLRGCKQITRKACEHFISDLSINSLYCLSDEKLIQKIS
The experiment in a line: Inhibition of KDM2A in human MIA PaCa-2 cells assessed as induction of H3K36me2 measured by immunofluorescence assay. The class given is cell-based.

Data set [11] concerns the target T4, Lysine-specific demethylase 4A.
The target is the same in data set [12]. This is another data set of the same source.

Regarding `O=C(O)c1cc(O)c(=O)c2c(O)c(O)cc(-c3ccccc3)c2c1`, the negative-log IC50 (pIC50) in data set [1], in data set [2] and in [3] was 4.61 throughout.

As to `CN(C)C[C@H]1[C@H]2CC[C@](c3ccccc3)(C2)[C@H]1O`, the negative logarithm of the EC50 (pEC50) in data set [4] was 3.98.

Consider `CC(C)(C)OC(=O)C[C@@H]1CCN(C(c2ccc(-c3ccncc3)cc2)c2cc3c(cc2O)OCO3)C1` (some centres not stated), for which the values for the pIC50 in data set [5] and in data set [6] were < 4.00 and 7.64, respectively.

As to `CN(C)CCCNC(=O)c1ccc(-c2cc(O)c3ncccc3c2)cc1`, the Papp in data set [7] is 125 nm/s.

On to `Cc1nn(-c2nc3ccccc3[nH]2)c(O)c1-c1ccccc1`, for which the GI50 in [8] and in [9] was 8 µM each time.

For the compound `CN(C)c1ccc(/C=C/c2cc[n+](Cc3ccc(F)cc3)cc2)cc1`, the pIC50 in [10] and in data set [12] was 6.55 in each case. Moreover, the pKi in data set [11] was 6.38.
